Laboratory results as given in US20040171696A1, “Pharmaceutical composition for the treatment of the decline and/or damage of cognitive functions” (priority 2001, published 2004).

Key:
Male Wistar rats = assay: step through passive avoidance learning; type: in vivo, rat; settings: ip, FIG. 1
Experimental: Male Wistar rats weighing 200-220 g were used. The animals were obtained from Charles River Co. They were kept in a room with normal 12-12 h light dark cycle (light on: 06:00) at a relative humidity of 60±10%.
The experiment was performed in a five-channel “step through”-type passive avoidance learning apparatus. The equipment consisted of two adjacent Plexi-glass boxes of 20×20×16 cm. One of them was made of regular transparent Plexi-glass and the other one was made of black, non-transparent Plexi-glass. The boxes were connected with a 7.5×8 cm passage way, equipped with a computer-controlled guillotine-door. The passage of the rats through the door was detected by infrared photocells arranged in two parallel lines in the opening of the passage way. The door was automatically closed when the animals passed through. The dark compartment was equipped with stainless steel grid floor through which electric foot shocks could be delivered to the animals. […]
The individually numbered animals were placed into the light compartment of the equipment. […] Step through latency was automatically determined. […]
After 24 h the animals were placed again in the light compartment of the test apparatus and step-through latency was measured as described at Acquisition day, except that no foot shock was applied to the animals in any group on the second day. […]

[1] = 3 mg/kg single subcutaneous administration; cited from earlier work
[2] = intraperitoneal 1 and 10 mg/kg; cited from earlier work
rats = settings: 1 and 10 mg/kg per os; cited from earlier work
[3] = cited from earlier work
central 5-HT2A receptors = central 5-HT2A receptors (Homo sapiens, UniProt P28223); settings: cited from earlier work
Chain of central 5-HT2A receptors (P28223 whole entry): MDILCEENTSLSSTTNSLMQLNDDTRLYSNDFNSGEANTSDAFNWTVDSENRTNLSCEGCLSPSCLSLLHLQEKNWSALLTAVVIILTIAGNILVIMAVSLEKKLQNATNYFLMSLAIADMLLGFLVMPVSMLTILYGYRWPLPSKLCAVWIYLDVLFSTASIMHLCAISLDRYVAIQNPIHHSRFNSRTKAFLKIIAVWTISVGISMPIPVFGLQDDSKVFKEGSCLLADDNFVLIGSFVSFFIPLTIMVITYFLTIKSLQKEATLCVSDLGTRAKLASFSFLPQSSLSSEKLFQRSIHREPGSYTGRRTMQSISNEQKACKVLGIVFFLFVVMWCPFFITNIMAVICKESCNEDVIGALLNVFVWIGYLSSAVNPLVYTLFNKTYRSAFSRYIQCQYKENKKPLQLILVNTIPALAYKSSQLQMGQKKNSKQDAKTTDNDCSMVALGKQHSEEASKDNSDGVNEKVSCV

[4] = per os 10 and 30 mg/kg; cited from earlier work
[5] = as low as 0.7 mg/kg intraperitoneal; cited from earlier work
central 5-HT2C receptors = central 5-HT2C receptors (Homo sapiens, UniProt P28335); settings: cited from earlier work
Chain of central 5-HT2C receptors (P28335 33-458): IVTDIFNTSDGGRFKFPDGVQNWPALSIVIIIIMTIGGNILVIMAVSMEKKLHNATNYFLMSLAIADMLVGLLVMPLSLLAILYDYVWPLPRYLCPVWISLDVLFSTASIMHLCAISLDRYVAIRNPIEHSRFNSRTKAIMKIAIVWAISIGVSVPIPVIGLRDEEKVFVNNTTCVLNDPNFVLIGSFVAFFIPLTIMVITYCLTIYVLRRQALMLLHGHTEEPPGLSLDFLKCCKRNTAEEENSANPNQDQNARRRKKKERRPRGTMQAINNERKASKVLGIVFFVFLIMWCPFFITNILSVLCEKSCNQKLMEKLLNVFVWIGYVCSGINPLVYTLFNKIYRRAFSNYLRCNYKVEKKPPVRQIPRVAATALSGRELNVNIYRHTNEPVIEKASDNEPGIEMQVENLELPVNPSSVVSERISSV

Row | Structure (SMILES) | step-through latency into the dark compartment (Male Wistar rats; Day 1 administration, 30 min before Acquisition, latency on Day 2) | step-through latency into the dark compartment (Male Wistar rats; Day 2 administration, 30 min before Retention test) | anxiolytic activity in light-dark model [1] | effect in learned helplessness [2] | effect in Vogel lick-conflict model (rats) | effect on CCK agonist induced anxiety in elevated plus-maze ([3]; CCK agonist induced anxiety) | activity in elevated plus-maze, alone ([3]; deramciclane alone) | binding to 5-HT2A receptors (central 5-HT2A receptors) | activity in marble burying test [4] | number of social interactions [5] | binding to 5-HT2C receptors (central 5-HT2C receptors)
1 | CN(C)CCO[C@]1(c2ccccc2)C[C@H]2CC[C@]1(C)C2(C)C.O=C(O)/C=C/C(=O)O [(1R,2S,4R)-(−)-2-(2-dimethylaminoethoxy)-2-phenyl-1,7,7-trimethyl-bicyclo[2.2.1]heptane-fumarate] | significantly increased | significantly increased |  |  |  |  |  |  |  |  | 
2 | CN(C)CCO[C@]1(c2ccccc2)C[C@H]2CC[C@]1(C)C2(C)C [deramciclane, (1R,2S,4R)-(−)-2-(2-dimethylaminoethoxy)-2-phenyl-1,7,7-trimethylbicyclo[2.2.1]heptane] |  |  | showed anxiolytic activity | effective | effective | antagonized CCK agonist induced anxiety | completely inactive | binds | displayed significant activity | increased the number of social interactions | binds
